Data published in EP2975030B1, “DIHYDROPYRIDAZINE-3,5-DIONE DERIVATIVE” (Chugai Seiyaku Kabushiki Kaisha, priority 2013, dated 2014).

tested on: rat small-intestinal brush border membrane vesicles; assay: Inhibitory effect on 33PO4 uptake into rat small-intestinal brush border membrane vesicles (rapid filtration method); format: biochemical, Wistar female rat; details: 1 µM test compound; 33PO4 uptake into rat small-intestinal BBMVs, 60 seconds
Description: The ^33PO4 transport activity of the small-intestinal BBMVs was determined by the rapid filtration method. […] Then, ice-cold buffer C (110 mM NaCl, 1 mM KH2PO4, and 10 mM HEPES (pH 7.5)) was added to each reaction mixture, which was immediately suction-filtered through a Millipore filter. The filter was washed with buffer C, and each sample was then dissolved in a liquid scintillator. The amount of ^33PO4 uptake into BBMVs was measured using a liquid scintillation counter. […]

Row | Compound | Rate of uptake inhibition (%) (1 µM)
1 | C[C@]12CCCN1N(Cc1cccc(F)c1F)C(=O)C(C(=O)Nc1ccc(C(F)(F)F)cc1-c1cnc(N3CC4(COC4)C3)c(C#N)c1)=C2O [Example 111, (4aR)-N-[2-[5-Cyano-6-(2-oxa-6-azaspiro[3.3]heptan-6-yl)pyridin-3-yl]-4-(trifluoromethyl)phenyl]-1-[(2,3-difluorophenyl)methyl]-4-hydroxy-4a-methyl-2-oxo-6,7-dihydro-5H-pvrrolo[1,2-b]pyridazine-3-carboxamide] | 56
2 | COC(=O)CN(C)c1ncc(-c2cc(C(F)(F)F)ccc2NC(=O)C2=C(O)[C@@]3(C)CCCN3N(Cc3cccc(F)c3F)C2=O)cc1C#N [Example 112] | 43
3 | CSc1cc(-c2cc(C(F)(F)F)ccc2NC(=O)C2=C(O)[C@@]3(C)CCCN3N(Cc3cccc(F)c3F)C2=O)cnc1C#N [Example 113] | 84
4 | COc1cc(-c2cc(C(F)(F)F)ccc2NC(=O)C2=C(O)[C@@]3(C)CCCN3N(Cc3cccc(F)c3F)C2=O)cnc1C#N [Example 114, (4aR)-N-[2-(6-Cyano-5-methoxypyridin-3-yl)-4-(trifluoromethyl)phenyl]-1-[(2,3-difluorophenyl)methyl]-4-hydroxy-4a-methyl-2-oxo-6,7-dihydro-5H-pyrrolo[1,2-b]pyridazine-3-carboxamide] | 86
5 | CSc1ccc(-c2cc(C(F)(F)F)ccc2NC(=O)C2=C(O)[C@@]3(C)CCCN3N(Cc3ccc(CCCCCCC(=O)O)c(F)c3F)C2=O)cn1 [Example 115, 7-[4-[[(4aR)-4-Hydroxy-4a-methyl-3-[[2-(6-methylsulfanylpyridin-3-yl)-4-(trifluoromethyl)phenyl]carbamoyl]-2-oxo-6,7-dihydro-5H-pyrrolo[1,2-b]pyridazin-1-yl]methyl]-2,3-difluorophenyl]heptanoate] | 85
6 | C[C@]12CCCN1N(Cc1ccc(CCCCCCC(=O)O)c(F)c1F)C(=O)C(C(=O)Nc1ccc(Cl)cc1-c1ccc(C(F)(F)F)nc1)=C2O [Example 116, 7-[4-[[(4aR)-3-[[4-Chloro-2-[6-(trifluoromethyl)pyridin-3-yl]phenyl]carbamoyl]-4-hydroxy-4a-methyl-2-oxo-6,7-dihydro-5H-pyrrolo[1,2-b]pyridazin-1-yl]methyl]-2,3-difluorophenyl]heptanoate] | 72
7 | CSc1ccc(-c2cc(C(F)(F)F)ccc2NC(=O)C2=C(O)[C@@]3(C)CCCN3N(Cc3ccc(C#CCCCCC(=O)O)c(F)c3F)C2=O)cn1 [Example 117, 7-[4-[[(4aR)-4-Hydroxy-4a-methyl-3-[[2-(6-methylsulfanylpyridin-3-yl)-4-(trifluoromethyl)phenyl]carbamoyl]-2-oxo-6,7-dihydro-5H-pyrrolo[1,2-b]pyridazin-1-yl]methyl]-2,3-difluorophenyl]hept-6-ynoate] | 78
8 | CSc1ncc(-c2cc(C(F)(F)F)ccc2NC(=O)C2=C(O)[C@@]3(C)CCCN3N(Cc3ccc(C#CCCCCC(=O)O)c(F)c3F)C2=O)cn1 [Example 118, 7-[4-[[(4aR)-4-Hydroxy-4a-methyl-3-[[2-(2-methylsulfanylpyrimidin-5-yl)-4-(trifluoromethyl)phenyl]carbamoyl)-2-oxo-6,7-dihydro-5H-pyrrolo[1,2-b]pyridazin-1-yl]methyl]-2,3-difluorophenyl]hept-6-ynoate] | 81
9 | C[C@]12CCCN1N(Cc1ccc(C#CCCCCC(=O)O)c(F)c1F)C(=O)C(C(=O)Nc1ccc(C(F)(F)F)cc1-c1cncc(C(F)(F)F)c1)=C2O [Example 119, 7-[4-[[(4aR)4-Hydroxy-4a-methyl-2-oxo-3-[[4-(trifluoromethyl)-2-[5-(trifluoromethyl)pyridin-3-yl]phenyl]carbamoyl]-6,7-dihydro-5H-pyrrolo[1,2-b]pyridazin-1-yl]methyl)-2,3-difluorophenyl]hept-6-ynoate] | 71
10 | CSc1ccc(-c2cc(C(F)(F)F)ccc2NC(=O)C2=C(O)[C@@]3(C)CCCN3N(Cc3ccc(OCCCCOC[C@H](O)CO)c(F)c3F)C2=O)cn1 [Example 120] | 66
11 | C[C@]12CCCN1N(Cc1ccc(OCCCCOC[C@H](O)CO)c(F)c1F)C(=O)C(C(=O)Nc1ccc(Cl)cc1-c1ccc(C(F)(F)F)nc1)=C2O [Example 121, (4aR)-N-[4-Chloro-2-[6-(trifluoromethyl)pyridin-3-yl]phenyl]-1-[[4-[4-[(2R)-2,3-dihydroxypropoxy]butoxy]-2,3-difluorophenyl]methy]-4-hydroxy-4a-methyl-2-oxo-6,7-dihydro-5H-pyrrolo[1,2-b]pyridazine-3-carboxamide] | 72
12 | C[C@]12CCCN1N(Cc1cccc(F)c1F)C(=O)C(C(=O)Nc1ccc(Br)cc1-c1ccc(Cl)nc1)=C2O [Example 122, (4aR)-N-[4-Bromo-2-(6-chloropyridin-3-yl)phenyl]-1-[(2,3-difluorophenyl)methyl]-4-hydroxy-4a-methyl-2-oxo-6,7-dihydro-5H-pyrrolo[1,2-b]pyridazine-3-carboxamide] | 82
13 | COc1cccc(-c2cc(C(F)(F)F)ccc2NC(=O)C2=C(O)[C@@]3(C)CCCN3N(Cc3ccc(C#CCOCCCCO)c(F)c3F)C2=O)c1OC [Example 123, (4aR)-1-[[2,3-Difluoro-4-[3-(4-hydroxybutoxy)prop-1-ynil]phenyl]methyl]-N-[2-(2.3-dimethoxyphenyl)-4-(trifluoromethyl)phenyl]-4-hydroxy-4a-methyl-2-oxo-6,7-dihydro-5H-pyrrolo[1,2-b]pyridazine-3-carboxamide] | 87
14 | C[C@]12CCCN1N(Cc1c(F)cc(C#CCCCCCOC[C@H](O)[C@@H](O)CO)cc1F)C(=O)C(C(=O)Nc1ccc(C(F)(F)F)cc1-c1ccc(C(F)(F)F)nc1)=C2O [Example 124] | 81
15 | C[C@]12CCCN1N(Cc1c(F)cc(CCCCCCCOC[C@H](O)[C@@H](O)CO)cc1F)C(=O)C(C(=O)Nc1ccc(C(F)(F)F)cc1-c1ccc(C(F)(F)F)nc1)=C2O [Example 125, (4aR)-1-[[2,6-Difluoro-4-[7-[(2S,3S)-2,3,4-trihydroxybutoxy]heptyl]phenyl]methyl]-4-hydroxy-4a-methvl-2-oxo-N-[4-(trifluoromethyl)-2-[6-(trifluoromethyl)pyridin-3-yl]phenyl]-6,7-dihydro-5H-pyrrolo[1,2-b]pyridazine-3-carboxamide] | 76
16 | C#Cc1ccc(CN2C(=O)C(C(=O)Nc3ccc(C(F)(F)F)cc3-c3cc(C(F)(F)F)ncn3)=C(O)[C@@]3(C)CCCN23)c(F)c1F [Example 126, (4aR)-1-[(4-Ethynyl-2,3-difluorophenyl)methyl]-4-hydroxy-4a-methyl-2-oxo-N-[4-(trifluoromethyl)-2-[6-(trifluoromethyl)pyrimidin-4-yl]phenyl]-6,7-dihydro-5H-pyrrolo[1.2-b]pyridazine-3-carboxamide] | 71
17 | COc1cccc(-c2cc(C(F)(F)F)ccc2NC(=O)C2=C(O)[C@@]3(C)CCCN3N(Cc3ccc(C#CCOCCCO)c(F)c3F)C2=O)c1OC [Example 127] | 95
18 | C[C@]12CCCN1N(Cc1ccc(C#CCOCCCCO)c(F)c1F)C(=O)C(C(=O)Nc1ccc(C(F)(F)F)cc1-c1ccc(C(F)(F)F)nc1)=C2O [Example 128] | 72
19 | C[C@]12CCCN1N(Cc1c(F)cc(C#CC3(O)CCCC3)cc1F)C(=O)C(C(=O)Nc1ccc(C(F)(F)F)cc1-c1ccc(C(F)(F)F)nc1)=C2O [Example 130] | 72
20 | C[C@]12CCCN1N(Cc1ccc(C#CCN3CCCC3=O)c(F)c1F)C(=O)C(C(=O)Nc1ccc(Br)c(F)c1)=C2O [Example 131] | 87
21 | C[C@]12CCCN1N(Cc1c(F)cc(C#CCN3CCOCC3)cc1F)C(=O)C(C(=O)Nc1ccc(C(F)(F)F)cc1-c1ccc(C(F)(F)F)nc1)=C2O [Example 132] | 71
22 | COc1cccc(-c2cc(C(F)(F)F)ccc2NC(=O)C2=C(O)[C@@]3(C)CCCN3N(Cc3ccc(C#CCCCCO)c(F)c3F)C2=O)c1OC [Example 135] | 90
23 | COc1cccc(-c2cc(C(F)(F)F)ccc2NC(=O)C2=C(O)[C@@]3(C)CCCN3N(Cc3ccc(C#CCOCCOCCOCCO)c(F)c3F)C2=O)c1OC [Example 136] | 80
24 | COc1cccc(-c2cc(C(F)(F)F)ccc2NC(=O)C2=C(O)[C@@]3(C)CCCN3N(Cc3ccc(C#CCOCCO)c(F)c3F)C2=O)c1OC [Example 137] | 92
25 | COc1cccc(-c2cc(C(F)(F)F)ccc2NC(=O)C2=C(O)[C@@]3(C)CCCN3N(Cc3ccc(C#CCCCO)c(F)c3F)C2=O)c1OC [Example 138] | 93
26 | COc1cccc(-c2cc(C(F)(F)F)ccc2NC(=O)C2=C(O)[C@@]3(C)CCCN3N(Cc3ccc(C#CCOCCOCCO)c(F)c3F)C2=O)c1OC [Example 139] | 88
27 | C[C@]12CCCN1N(Cc1ccc(CCCOCCCO)c(F)c1F)C(=O)C(C(=O)Nc1ccc(C(F)(F)F)cc1-c1ccc(C(F)(F)F)nc1)=C2O [Example 141] | 83
28 | COc1cccc(-c2cc(C(F)(F)F)ccc2NC(=O)C2=C(O)[C@@]3(C)CCCN3N(Cc3ccc(CCCOCCOCCOCCO)c(F)c3F)C2=O)c1OC [Example 142] | 76
29 | C[C@]12CCCN1N(Cc1c(F)cc(C#CCCCCOC[C@H](O)CO)cc1F)C(=O)C(C(=O)Nc1ccc(C(F)(F)F)cc1-c1ccc(C(F)(F)F)nc1)=C2O.[Na+] [Example 143] | 71
30 | C[C@]12CCCN1N(Cc1c(F)cc(C#CCCOC[C@H](O)CO)cc1F)C(=O)C(C(=O)Nc1ccc(C(F)(F)F)cc1-c1ccc(C(F)(F)F)nc1)=C2O [Example 145] | 78
